# Laboratory results as given in ChEMBL document CHEMBL1153480, “Study on the potential anti-cancer activity of phosphonium and ammonium-based ionic liquids” (2009).
# Legend:
# Type in all cases: functional
# 786-0 [1] = test: cells; conditions: Homo sapiens, read-out: LC50 (the source's name)
# Description: Cytotoxicity against human 786-0 cells by SRB assay
# T47D [2] = test: cells; conditions: Homo sapiens
# Description: Growth inhibition of human T47D cells assessed as cell growth at 10 uM by SRB assay
# cells [3] = conditions: Homo sapiens, Hs-578T
# Description: Growth inhibition of human Hs 578T cells assessed as cell growth at 10 uM by SRB assay
# SK-MEL-2 = test: cells; conditions: Homo sapiens
# Description: Growth inhibition of human SK-MEL-2 cells assessed as drug level required for 50% reduction in net protein increase by SRB assay relative to control
# NCI-H23 [4] = test: cells; conditions: Homo sapiens
# Description: Growth inhibition of human NCI-H23 cells assessed as cell growth at 10 uM by SRB assay
# CCRF-CEM [5] = test: cells; conditions: Homo sapiens
# Description: Growth inhibition of human CCRF-CEM cells assessed as cell growth at 10 uM by SRB assay
# OVCAR-3 [6] = test: Cytotoxicity against human OVCAR-3 cells by SRB assay; conditions: read-out: LC50 (the source's name)
# OVCAR-5 [7] = test: cells; conditions: Homo sapiens
# Description: Growth inhibition of human OVCAR5 cells assessed as cell growth at 10 uM by SRB assay
# 786-0 [8] = test: cells; conditions: Homo sapiens
# Description: Growth inhibition of human 786-0 cells assessed as drug level required for 50% reduction in net protein increase by SRB assay relative to control
# NCI-H23 [9] = test: Cytotoxicity against human NCI-H23 cells by SRB assay; conditions: read-out: LC50 (the source's name)
# MDA-MB-435 [10] = test: cells; conditions: Homo sapiens
# Description: Growth inhibition of human MDA-MB-435 cells assessed as drug level required for 50% reduction in net protein increase by SRB assay relative to control
# RPMI-8226 [11] = test: cells; conditions: Homo sapiens
# Description: Growth inhibition of human RPMI8226 cells assessed as cell growth at 10 uM by SRB assay
# NCI-H23 [12] = test: cells; conditions: Homo sapiens; remark: listed apart in the source
# Description: Growth inhibition of human NCI-H23 cells assessed as drug level required for 50% reduction in net protein increase by SRB assay relative to control
# KM12 [13] = test: cells; conditions: Homo sapiens
# Description: Growth inhibition of human KM12 cells assessed as cell growth at 10 uM by SRB assay
# SNB-19 = test: cells; conditions: Homo sapiens
# Description: Growth inhibition of human SNB19 cells assessed as cell growth at 10 uM by SRB assay
# RXF 393 = test: cells; conditions: Homo sapiens
# Description: Growth inhibition of human RFX393 cells assessed as drug level required for 50% reduction in net protein increase by SRB assay relative to control
# UO-31 [14] = test: cells; conditions: Homo sapiens
# Description: Growth inhibition of human UO31 cells assessed as drug level required for 50% reduction in net protein increase by SRB assay relative to control
# OVCAR-8 = test: cells; conditions: Homo sapiens
# Description: Growth inhibition of human OVCAR8 cells assessed as cell growth at 10 uM by SRB assay
# A549 = test: cells; conditions: Homo sapiens
# Description: Growth inhibition of human A549 cells assessed as drug level required for 50% reduction in net protein increase by SRB assay relative to control
# MDA-MB-468 [15] = test: Cytotoxicity against human MDA-MB-468 cells by SRB assay; conditions: read-out: LC50 (the source's name)
# HCC 2998 = test: cells; conditions: Homo sapiens
# Description: Growth inhibition of human HCC2998 cells assessed as drug level required for 50% reduction in net protein increase by SRB assay relative to control
# cells [16] = conditions: Homo sapiens, CAKI
# Description: Growth inhibition of human CAKI cells assessed as drug level required for 50% reduction in net protein increase by SRB assay relative to control
# UACC-257 = test: cells; conditions: Homo sapiens
# Description: Growth inhibition of human UACC257 cells assessed as cell growth at 10 uM by SRB assay
# U-251 = test: cells; conditions: Homo sapiens
# Description: Growth inhibition of human U251 cells assessed as cell growth at 10 uM by SRB assay
# SN12C [17] = test: cells; conditions: Homo sapiens
# Description: Growth inhibition of human SN12C cells assessed as cell growth at 10 uM by SRB assay
# SK-OV-3 [18] = test: cells; conditions: Homo sapiens
# Description: Growth inhibition of human SKOV3 cells assessed as drug level required for 50% reduction in net protein increase by SRB assay relative to control
# OVCAR-3 [19] = test: cells; conditions: Homo sapiens
# Description: Growth inhibition of human OVCAR-3 cells assessed as drug level required for 50% reduction in net protein increase by SRB assay relative to control
# COLO 205 [20] = test: cells; conditions: Homo sapiens
# Description: Growth inhibition of human COLO205 cells assessed as drug level required for 50% reduction in net protein increase by SRB assay relative to control
# M14 [21] = test: cells; conditions: Homo sapiens
# Description: Growth inhibition of human M14 cells assessed as cell growth at 10 uM by SRB assay
# EKVX = test: cells; conditions: Homo sapiens
# Description: Growth inhibition of human EKVX cells assessed as drug level required for 50% reduction in net protein increase by SRB assay relative to control
# RPMI-8226 [22] = test: cells; conditions: Homo sapiens; remark: listed apart in the source
# Description: Growth inhibition of human RPMI8226 cells assessed as drug level required for 50% reduction in net protein increase by SRB assay relative to control
# MDA-MB-468 [23] = test: cells; conditions: Homo sapiens
# Description: Growth inhibition of human MDA-MB-468 cells assessed as cell growth at 10 uM by SRB assay
# MCF7 = test: Cytotoxicity against human MCF7 cells by SRB assay; conditions: read-out: LC50 (the source's name)
# M14 [24] = test: Cytotoxicity against human M14 cells by SRB assay; conditions: read-out: LC50 (the source's name)
# PC-3 [25] = test: Cytotoxicity against human PC3 cells by SRB assay; conditions: read-out: LC50 (the source's name)
# KM12 [26] = test: Cytotoxicity against human KM12 cells by SRB assay; conditions: read-out: LC50 (the source's name)
# HOP-62 = test: cells; conditions: Homo sapiens
# Description: Growth inhibition of human HOP62 cells assessed as drug level required for 50% reduction in net protein increase by SRB assay relative to control
# SF-539 [27] = test: cells; conditions: Homo sapiens
# Description: Growth inhibition of human SF539 cells assessed as drug level required for 50% reduction in net protein increase by SRB assay relative to control
# SNB-75 = test: Cytotoxicity against human SNB75 cells by SRB assay; conditions: read-out: LC50 (the source's name)
# SK-OV-3 [28] = test: Cytotoxicity against human SKOV3 cells by SRB assay; conditions: read-out: LC50 (the source's name)
# K562 [29] = test: Cytotoxicity against human K562 cells by SRB assay; conditions: read-out: LC50 (the source's name)
# SR = test: Cytotoxicity against human SR cells by SRB assay; conditions: read-out: LC50 (the source's name)
# PC-3 [30] = test: cells; conditions: Homo sapiens
# Description: Growth inhibition of human PC3 cells assessed as drug level required for 50% reduction in net protein increase by SRB assay relative to control
# BT-549 = test: cells; conditions: Homo sapiens
# Description: Growth inhibition of human BT549 cells assessed as drug level required for 50% reduction in net protein increase by SRB assay relative to control
# MOLT-4 = test: Cytotoxicity against human MOLT4 cells by SRB assay; conditions: read-out: LC50 (the source's name)
# NCI/ADR-RES [31] = test: cells; conditions: Homo sapiens
# Description: Growth inhibition of human NCI/ADR-RES cells assessed as cell growth at 10 uM by SRB assay
# SK-MEL-28 = test: cells; conditions: Homo sapiens
# Description: Growth inhibition of human SK-MEL-28 cells assessed as cell growth at 10 uM by SRB assay
# SK-MEL-5 = test: cells; conditions: Homo sapiens
# Description: Growth inhibition of human SK-MEL-5 cells assessed as drug level required for 50% reduction in net protein increase by SRB assay relative to control
# MDA-MB-435 [32] = test: cells; conditions: Homo sapiens; remark: listed apart in the source
# Description: Growth inhibition of human MDA-MB-435 cells assessed as cell growth at 10 uM by SRB assay
# ACHN = test: cells; conditions: Homo sapiens
# Description: Growth inhibition of human ACHN cells assessed as cell growth at 10 uM by SRB assay
# CCRF-CEM [33] = test: cells; conditions: Homo sapiens; remark: listed apart in the source
# Description: Growth inhibition of human CCRF-CEM cells assessed as drug level required for 50% reduction in net protein increase by SRB assay relative to control
# NCI-H460 = test: cells; conditions: Homo sapiens
# Description: Growth inhibition of human NCI-H460 cells assessed as drug level required for 50% reduction in net protein increase by SRB assay relative to control
# [34] = Cytotoxicity against human CAKI cells by SRB assay; conditions: read-out: LC50 (the source's name)
# HT-29 = test: Cytotoxicity against human HT-29 cells by SRB assay; conditions: read-out: LC50 (the source's name)
# OVCAR-3 [35] = test: cells; conditions: Homo sapiens; remark: listed apart in the source
# Description: Growth inhibition of human OVCAR-3 cells assessed as cell growth at 10 uM by SRB assay
# NCI/ADR-RES [36] = test: cells; conditions: Homo sapiens; remark: listed apart in the source
# Description: Growth inhibition of human NCI/ADR-RES cells assessed as drug level required for 50% reduction in net protein increase by SRB assay relative to control
# 786-0 [37] = test: cells; conditions: Homo sapiens; remark: listed apart in the source
# Description: Growth inhibition of human 786-0 cells assessed as cell growth at 10 uM by SRB assay
# IGROV-1 = test: Cytotoxicity against human IGROV1 cells by SRB assay; conditions: read-out: LC50 (the source's name)
# Malme-3M = test: cells; conditions: Homo sapiens
# Description: Growth inhibition of human MALME-3M cells assessed as drug level required for 50% reduction in net protein increase by SRB assay relative to control
# T47D [38] = test: Cytotoxicity against human T47D cells by SRB assay; conditions: read-out: LC50 (the source's name)
# SF-539 [39] = test: cells; conditions: Homo sapiens; remark: listed apart in the source
# Description: Growth inhibition of human SF539 cells assessed as cell growth at 10 uM by SRB assay
# K562 [40] = test: cells; conditions: Homo sapiens
# Description: Growth inhibition of human K562 cells assessed as drug level required for 50% reduction in net protein increase by SRB assay relative to control
# T47D [41] = test: cells; conditions: Homo sapiens; remark: listed apart in the source
# Description: Growth inhibition of human T47D cells assessed as drug level required for 50% reduction in net protein increase by SRB assay relative to control
# UO-31 [42] = test: Cytotoxicity against human UO31 cells by SRB assay; conditions: read-out: LC50 (the source's name)
# NCI-H522 [43] = test: Cytotoxicity against human NCI-H522 cells by SRB assay; conditions: read-out: LC50 (the source's name)
# SF-268 = test: cells; conditions: Homo sapiens
# Description: Growth inhibition of human SF268 cells assessed as cell growth at 10 uM by SRB assay
# NCI-H522 [44] = test: cells; conditions: Homo sapiens
# Description: Growth inhibition of human NCI-H522 cells assessed as cell growth at 10 uM by SRB assay
# OVCAR-5 [45] = test: cells; conditions: Homo sapiens; remark: listed apart in the source
# Description: Growth inhibition of human OVCAR5 cells assessed as drug level required for 50% reduction in net protein increase by SRB assay relative to control
# M14 [46] = test: cells; conditions: Homo sapiens; remark: listed apart in the source
# Description: Growth inhibition of human M14 cells assessed as drug level required for 50% reduction in net protein increase by SRB assay relative to control
# SF-295 = test: cells; conditions: Homo sapiens
# Description: Growth inhibition of human SF295 cells assessed as drug level required for 50% reduction in net protein increase by SRB assay relative to control
# COLO 205 [47] = test: Cytotoxicity against human COLO205 cells by SRB assay; conditions: read-out: LC50 (the source's name)
# SN12C [48] = test: cells; conditions: Homo sapiens; remark: listed apart in the source
# Description: Growth inhibition of human SN12C cells assessed as drug level required for 50% reduction in net protein increase by SRB assay relative to control
structure (smiles),measurement,setting,value
CCCCCCCC[N+](C)(CCCCCCCC)CCCCCCCC.O=S(=O)([N-]S(=O)(=O)C(F)(F)F)C(F)(F)F,CC50,786-0 [1],5020 nM
same,growth at 10 µM,T47D [2],-73.3%
same,growth at 10 µM,cells [3],-66.7%
same,GI50,SK-MEL-2,356 nM
same,growth at 10 µM,NCI-H23 [4],-97%
same,growth at 10 µM,CCRF-CEM [5],85.7%
same,CC50,OVCAR-3 [6],4180 nM
same,growth at 10 µM,OVCAR-5 [7],-100%
same,GI50,786-0 [8],415 nM
same,CC50,NCI-H23 [9],6330 nM
same,GI50,MDA-MB-435 [10],335 nM
same,growth at 10 µM,RPMI-8226 [11],44.2%
same,GI50,NCI-H23 [12],308 nM
same,growth at 10 µM,KM12 [13],-100%
same,growth at 10 µM,SNB-19,-89.6%
same,GI50,RXF 393,464 nM
same,GI50,UO-31 [14],686 nM
same,growth at 10 µM,OVCAR-8,-100%
same,GI50,A549,1900 nM
same,CC50,MDA-MB-468 [15],2110 nM
same,GI50,HCC 2998,425 nM
same,GI50,cells [16],84 nM
same,growth at 10 µM,UACC-257,-95.2%
same,growth at 10 µM,U-251,-75%
same,growth at 10 µM,SN12C [17],-86.5%
same,GI50,SK-OV-3 [18],565 nM
same,GI50,OVCAR-3 [19],315 nM
same,GI50,COLO 205 [20],292 nM
same,growth at 10 µM,M14 [21],-91.7%
same,GI50,EKVX,215 nM
same,GI50,RPMI-8226 [22],46 nM
same,growth at 10 µM,MDA-MB-468 [23],-90.1%
same,CC50,MCF7,4020 nM
same,CC50,M14 [24],9190 nM
same,CC50,PC-3 [25],3990 nM
same,CC50,KM12 [26],5310 nM
same,GI50,HOP-62,787 nM
same,GI50,SF-539 [27],514 nM
same,CC50,SNB-75,3770 nM
same,CC50,SK-OV-3 [28],5120 nM
same,CC50,K562 [29],4860 nM
same,CC50,SR,5130 nM
same,GI50,PC-3 [30],282 nM
same,GI50,BT-549,421 nM
same,CC50,MOLT-4,4890 nM
same,growth at 10 µM,NCI/ADR-RES [31],-100%
same,growth at 10 µM,SK-MEL-28,-100%
same,GI50,SK-MEL-5,177 nM
same,growth at 10 µM,MDA-MB-435 [32],-90.8%
same,growth at 10 µM,ACHN,-93.6%
same,GI50,CCRF-CEM [33],190 nM
same,GI50,NCI-H460,362 nM
same,CC50,[34],3280 nM
same,CC50,HT-29,5170 nM
same,growth at 10 µM,OVCAR-3 [35],-100%
same,GI50,NCI/ADR-RES [36],1680 nM
same,growth at 10 µM,786-0 [37],-95.8%
same,CC50,IGROV-1,> 100000 nM
same,GI50,Malme-3M,290 nM
same,CC50,T47D [38],> 100000 nM
same,growth at 10 µM,SF-539 [39],-100%
same,GI50,K562 [40],186 nM
same,GI50,T47D [41],428 nM
same,CC50,UO-31 [42],5950 nM
same,CC50,NCI-H522 [43],5400 nM
same,growth at 10 µM,SF-268,-100%
same,growth at 10 µM,NCI-H522 [44],-99.9%
same,GI50,OVCAR-5 [45],1240 nM
same,GI50,M14 [46],453 nM
same,GI50,SF-295,333 nM
same,CC50,COLO 205 [47],> 100000 nM
same,GI50,SN12C [48],367 nM
CCCCCCCCCCCCCCCCCCPCCCCCCCCCCCCCC (centres undefined) [MONO(OCTADECYL(TETRADECYL)PHOSPHONIUM) MONO(HEXAFLUOROPHOSPHATE(V)) MONO(TETRAFLUOROBORATE)],CC50,786-0 [1],> 100000 nM
same,growth at 10 µM,T47D [2],-38.5%
same,growth at 10 µM,cells [3],-44.2%
same,GI50,SK-MEL-2,81 nM
same,growth at 10 µM,NCI-H23 [4],-61%
same,growth at 10 µM,CCRF-CEM [5],23.3%
same,CC50,OVCAR-3 [6],> 100000 nM
same,growth at 10 µM,OVCAR-5 [7],-70%
same,GI50,786-0 [8],211 nM
same,CC50,NCI-H23 [9],> 100000 nM
same,GI50,MDA-MB-435 [10],50 nM
same,growth at 10 µM,RPMI-8226 [11],27.2%
same,GI50,NCI-H23 [12],236 nM
same,growth at 10 µM,KM12 [13],-52.2%
same,growth at 10 µM,SNB-19,-44.9%
same,GI50,RXF 393,352 nM
same,GI50,UO-31 [14],398 nM
same,growth at 10 µM,OVCAR-8,-18.1%
same,GI50,A549,391 nM
same,CC50,MDA-MB-468 [15],> 100000 nM
same,GI50,HCC 2998,297 nM
same,GI50,cells [16],350 nM
same,growth at 10 µM,UACC-257,-59%
same,growth at 10 µM,U-251,-6.5%
same,growth at 10 µM,SN12C [17],-70.6%
same,GI50,SK-OV-3 [18],331 nM
same,GI50,OVCAR-3 [19],118 nM
same,GI50,COLO 205 [20],243 nM
same,growth at 10 µM,M14 [21],-67.2%
same,GI50,EKVX,206 nM
same,GI50,RPMI-8226 [22],16 nM
same,growth at 10 µM,MDA-MB-468 [23],-62%
same,CC50,MCF7,> 100000 nM
same,CC50,M14 [24],> 100000 nM
same,CC50,PC-3 [25],> 100000 nM
same,CC50,KM12 [26],> 100000 nM
same,GI50,HOP-62,399 nM
same,GI50,SF-539 [27],234 nM
same,CC50,SNB-75,> 100000 nM
same,CC50,SK-OV-3 [28],> 100000 nM
same,CC50,K562 [29],> 100000 nM
same,CC50,SR,> 100000 nM
same,GI50,PC-3 [30],44 nM
same,GI50,BT-549,94 nM
same,CC50,MOLT-4,> 100000 nM
same,growth at 10 µM,NCI/ADR-RES [31],-77.3%
same,growth at 10 µM,SK-MEL-28,-69.3%
same,GI50,SK-MEL-5,74 nM
same,growth at 10 µM,MDA-MB-435 [32],-59.3%
same,growth at 10 µM,ACHN,-58.9%
same,GI50,CCRF-CEM [33],34 nM
same,GI50,NCI-H460,346 nM
same,CC50,[34],> 100000 nM
same,CC50,HT-29,> 100000 nM
same,growth at 10 µM,OVCAR-3 [35],-51%
same,GI50,NCI/ADR-RES [36],947 nM
same,growth at 10 µM,786-0 [37],-74%
same,CC50,IGROV-1,> 100000 nM
same,GI50,Malme-3M,34 nM
same,CC50,T47D [38],> 100000 nM
same,growth at 10 µM,SF-539 [39],-83.2%
same,GI50,K562 [40],38 nM
same,GI50,T47D [41],89 nM
same,CC50,UO-31 [42],> 100000 nM
same,CC50,NCI-H522 [43],> 100000 nM
same,growth at 10 µM,SF-268,-49%
same,growth at 10 µM,NCI-H522 [44],-50.9%
same,GI50,OVCAR-5 [45],337 nM
same,GI50,M14 [46],87 nM
same,GI50,SF-295,251 nM
same,CC50,COLO 205 [47],> 100000 nM
same,GI50,SN12C [48],62 nM
